From PubChem BioAssay (NCI)
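Growth conditions: 96-well plates. Treatment: test compound, 48 hours, 5 concentrations. Analysis: linear interpolation between bracketing concentrations; unreached endpoints set to highest concentration. Abbreviation: GI50, concentration required for 50% inhibition of growth. TGI is the concentration that stops growth completely.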

Legend:
Assay in all cases: NCI tumour cell line growth inhibition, 48 h
[1] = test system: LXFL 529 NSCLC
[2] = test system: RXF-631 renal
[3] = test system: BT-549 breast
[4] = test system: SN12K1 renal
[5] = test system: XF 498 CNS
[6] = test system: P388/ADR leukemia
[7] = test system: DMS 273 small cell lung
[8] = test system: DLD-1 colon
[9] = test system: P388 leukemia

| Compound | TGI [1] | TGI [3] | TGI [5] | TGI [7] | TGI [8] | further results |
| --- | --- | --- | --- | --- | --- | --- |
| Cc1cc(N(CCC#N)S(=O)(=O)c2ccccc2)ccc1C=Nc1cccc(C(=O)O)c1 | > 100 µM | – | – | – | – | TGI [2]: > 100 µM |
| Cc1c(C)c2c(c(C)c1OC(=O)CCC(=O)[O-])CCC(C)(CCCCCCCCCCC[P+](c1ccccc1)(c1ccccc1)c1ccccc1)O2 (stereo not given) | – | 0.678 µM | – | – | – | GI50 [3]: 140 nM |
| C=C1CC[C@@]2(C)[C@@H]([C@@H]1C)[C@H]1CC[C@@H]3[C@@]4(C)CC[C@H](O)C(C)(C)[C@@H]4CC[C@@]3(C)[C@]1(C)C[C@@H]2O | – | 34.6 µM | – | – | – | – |
| CC1(CO)C(O)CCC2(C)C1CCC1CC3CC12CCC3(O)CO (stereo not given) | – | – | > 100 µM | > 100 µM | > 100 µM | TGI [4]: > 100 µM; TGI [6]: 12.6 µM; TGI [9]: 6.66 µM |
| O=C(NN1C(=O)C(Cl)C1c1cccc(O)c1)c1ccccc1O (stereo not given) | > 100 µM | – | > 100 µM | > 100 µM | > 100 µM | – |
